Test results reported in PubChem BioAssay (NCI).
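Abbreviation: GI50, concentration required for 50% inhibition of growth. TGI marks complete inhibition of growth.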

Experiments:
Experiment in all cases: NCI anticancer screen, dose series, 384-well format
786-0 renal = test system: 786-0 renal
A498 renal = test system: A498 renal
A549 NSCLC = test system: A549 NSCLC
ACHN renal = test system: ACHN renal
BT-549 breast = test system: BT-549 breast
CAKI-1 renal = test system: CAKI-1 renal
CCRF-CEM leukemia = test system: CCRF-CEM leukemia
COLO 205 colon = test system: COLO 205 colon
DU-145 prostate = test system: DU-145 prostate
EKVX NSCLC = test system: EKVX NSCLC
HCC-2998 colon = test system: HCC-2998 colon
HCT-15 colon = test system: HCT-15 colon
HL-60(TB) leukemia = test system: HL-60(TB) leukemia
HOP-62 NSCLC = test system: HOP-62 NSCLC
HOP-92 NSCLC = test system: HOP-92 NSCLC
HS 578T breast = test system: HS 578T breast
HT29 colon = test system: HT29 colon
IGROV1 ovarian = test system: IGROV1 ovarian
K-562 leukemia = test system: K-562 leukemia
KM12 colon = test system: KM12 colon
LOX IMVI melanoma = test system: LOX IMVI melanoma
M14 melanoma = test system: M14 melanoma
MALME-3M melanoma = test system: MALME-3M melanoma
MCF7 breast = test system: MCF7 breast
MDA-MB-231 breast = test system: MDA-MB-231 breast
MDA-MB-435 melanoma = test system: MDA-MB-435 melanoma
MDA-MB-468 breast = test system: MDA-MB-468 breast
MOLT-4 leukemia = test system: MOLT-4 leukemia
NCI-H226 lung = test system: NCI-H226 lung

SMILES: O=C(Nc1ccc(OC(F)(F)F)cc1)c1sccc1NCc1ccnc2ccccc12
- GI50 ([…]-0 renal): 4.38 µM
- TGI (786-0 renal): 15.6 µM
- GI50 (A498 renal): 2.57 µM
- TGI (A498 renal): 12.8 µM
- GI50 (A549 NSCLC): 4.5 µM
- TGI (A549 NSCLC): 52.5 µM
- GI50 (ACHN renal): 3.39 µM
- TGI (ACHN renal): 20.7 µM
- GI50 (BT-549 breast): 5.78 µM
- TGI (BT-549 breast): 17.7 µM
- GI50 (CAKI-1 renal): 3.2 µM
- TGI (CAKI-1 renal): 14.8 µM
- GI50 (CCRF-CEM leukemia): 2.03 µM
- TGI (CCRF-CEM leukemia): 4.44 µM
- GI50 (COLO 205 colon): 4.4 µM
- TGI (COLO 205 colon): 22.8 µM
- GI50 (DU-145 prostate): 4.94 µM
- TGI (DU-145 prostate): > 100 µM
- GI50 (EKVX NSCLC): 3.43 µM
- TGI (EKVX NSCLC): 19.9 µM
- GI50 (HCC-2998 colon): 4.65 µM
- TGI (HCC-2998 colon): 12 µM
- GI50 (HCT-15 colon): 3.55 µM
- TGI (HCT-15 colon): 10.9 µM
- GI50 (HL-60(TB) leukemia): 1.69 µM
- TGI (HL-60(TB) leukemia): 3.17 µM
- GI50 (HOP-62 NSCLC): 8.26 µM
- TGI (HOP-62 NSCLC): 71.6 µM
- GI50 (HOP-92 NSCLC): 3.99 µM
- TGI (HOP-92 NSCLC): 15.7 µM
- GI50 (HS 578T breast): 2.66 µM
- TGI (HS 578T breast): 8.81 µM
- GI50 (HT29 colon): 4.31 µM
- TGI (HT29 colon): 17.1 µM
- GI50 (IGROV1 ovarian): 2.47 µM
- TGI (IGROV1 ovarian): 6.72 µM
- GI50 (K-562 leukemia): 1.75 µM
- TGI (K-562 leukemia): 3.66 µM
- GI50 (KM12 colon): 3.74 µM
- TGI (KM12 colon): 15.9 µM
- GI50 (LOX IMVI melanoma): 3.48 µM
- TGI (LOX IMVI melanoma): 10.6 µM
- GI50 (M14 melanoma): 3.56 µM
- TGI (M14 melanoma): 14.3 µM
- GI50 (MALME-3M melanoma): 1.73 µM
- TGI (MALME-3M melanoma): 8.96 µM
- GI50 (MCF7 breast): 3.24 µM
- TGI (MCF7 breast): 15.9 µM
- GI50 (MDA-MB-231 breast): 1.9 µM
- TGI (MDA-MB-231 breast): 15.2 µM
- GI50 (MDA-MB-435 melanoma): 4.65 µM
- TGI (MDA-MB-435 melanoma): 21.7 µM
- GI50 (MDA-MB-468 breast): 2.06 µM
- TGI (MDA-MB-468 breast): 5.16 µM
- GI50 (MOLT-4 leukemia): 1.93 µM
- TGI (MOLT-4 leukemia): 3.56 µM
- GI50 (NCI-H226 lung): 4.4 µM
- TGI (NCI-H226 lung): 19 µM
